Data published in patent US10813933B2, “Therapeutic agent for lung cancer that has acquired EGFR-TKI resistance” (JAPANESE FOUNDATION FOR CANCER RESEARCH, priority 2016, dated 2020).
Where “and” joins values, the source holds several entries; their conditions need not be identical. Equal values may be shown once. Read-outs that look alike come from different tables or passages of the source.

Legend:
[1] = biological target: EGFR L858R mutant expressing Ba/F3 cells (Homo sapiens, UniProt P00533, L858R, cells depend on it); experiment: CellTiter-Glo cell viability, Ba/F3 EGFR mutant; assay type: cell-based, mouse; details: read-out: IC50 (nM) L858R
Sequence of EGFR L858R mutant expressing Ba/F3 cells (P00533 whole entry L858R): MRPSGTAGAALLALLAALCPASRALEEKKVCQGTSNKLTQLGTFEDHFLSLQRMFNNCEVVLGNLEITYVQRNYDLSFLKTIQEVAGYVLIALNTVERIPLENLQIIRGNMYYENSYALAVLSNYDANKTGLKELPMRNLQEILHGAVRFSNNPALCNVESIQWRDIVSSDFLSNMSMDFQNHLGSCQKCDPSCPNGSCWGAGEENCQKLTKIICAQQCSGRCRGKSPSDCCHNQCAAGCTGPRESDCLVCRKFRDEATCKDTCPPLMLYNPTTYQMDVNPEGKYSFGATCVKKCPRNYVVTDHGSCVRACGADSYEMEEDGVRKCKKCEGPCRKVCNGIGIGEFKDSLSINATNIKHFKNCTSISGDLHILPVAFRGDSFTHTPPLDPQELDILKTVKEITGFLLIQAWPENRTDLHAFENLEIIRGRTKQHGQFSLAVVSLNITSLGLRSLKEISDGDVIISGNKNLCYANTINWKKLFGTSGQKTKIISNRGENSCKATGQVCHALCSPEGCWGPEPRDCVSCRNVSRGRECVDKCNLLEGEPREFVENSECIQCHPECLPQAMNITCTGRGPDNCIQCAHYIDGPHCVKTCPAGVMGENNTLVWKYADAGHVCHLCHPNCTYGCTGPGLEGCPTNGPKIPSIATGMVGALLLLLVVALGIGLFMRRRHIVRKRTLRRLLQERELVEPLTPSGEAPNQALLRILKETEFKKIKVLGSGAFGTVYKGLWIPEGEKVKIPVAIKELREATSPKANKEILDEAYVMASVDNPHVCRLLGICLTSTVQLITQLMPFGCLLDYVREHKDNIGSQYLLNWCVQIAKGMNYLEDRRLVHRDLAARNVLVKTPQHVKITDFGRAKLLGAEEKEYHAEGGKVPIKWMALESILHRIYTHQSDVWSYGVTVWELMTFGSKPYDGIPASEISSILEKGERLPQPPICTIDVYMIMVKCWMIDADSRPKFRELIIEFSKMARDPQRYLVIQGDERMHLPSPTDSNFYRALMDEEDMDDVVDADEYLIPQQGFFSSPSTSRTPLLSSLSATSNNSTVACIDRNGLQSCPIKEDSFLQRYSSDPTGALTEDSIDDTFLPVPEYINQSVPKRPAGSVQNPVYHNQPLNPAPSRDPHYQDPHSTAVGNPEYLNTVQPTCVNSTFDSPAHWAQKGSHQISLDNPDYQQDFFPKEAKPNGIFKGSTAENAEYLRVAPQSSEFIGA
Procedure: (§1) Ba/F3 mutation lines were prepared in the same manner as above to determine the cell viabilities by CellTiter-Glo assay.

[2] = biological target: EGFR T790M/L858R mutant expressing Ba/F3 cells (Homo sapiens, UniProt P00533, T790M/L858R, cells depend on it); experiment: CellTiter-Glo cell viability, Ba/F3 EGFR mutant; assay type: cell-based, mouse; details: Table 5, ALK inhibitors, read-out: IC50 (nM) T/L
Sequence of EGFR T790M/L858R mutant expressing Ba/F3 cells (P00533 whole entry T790M/L858R): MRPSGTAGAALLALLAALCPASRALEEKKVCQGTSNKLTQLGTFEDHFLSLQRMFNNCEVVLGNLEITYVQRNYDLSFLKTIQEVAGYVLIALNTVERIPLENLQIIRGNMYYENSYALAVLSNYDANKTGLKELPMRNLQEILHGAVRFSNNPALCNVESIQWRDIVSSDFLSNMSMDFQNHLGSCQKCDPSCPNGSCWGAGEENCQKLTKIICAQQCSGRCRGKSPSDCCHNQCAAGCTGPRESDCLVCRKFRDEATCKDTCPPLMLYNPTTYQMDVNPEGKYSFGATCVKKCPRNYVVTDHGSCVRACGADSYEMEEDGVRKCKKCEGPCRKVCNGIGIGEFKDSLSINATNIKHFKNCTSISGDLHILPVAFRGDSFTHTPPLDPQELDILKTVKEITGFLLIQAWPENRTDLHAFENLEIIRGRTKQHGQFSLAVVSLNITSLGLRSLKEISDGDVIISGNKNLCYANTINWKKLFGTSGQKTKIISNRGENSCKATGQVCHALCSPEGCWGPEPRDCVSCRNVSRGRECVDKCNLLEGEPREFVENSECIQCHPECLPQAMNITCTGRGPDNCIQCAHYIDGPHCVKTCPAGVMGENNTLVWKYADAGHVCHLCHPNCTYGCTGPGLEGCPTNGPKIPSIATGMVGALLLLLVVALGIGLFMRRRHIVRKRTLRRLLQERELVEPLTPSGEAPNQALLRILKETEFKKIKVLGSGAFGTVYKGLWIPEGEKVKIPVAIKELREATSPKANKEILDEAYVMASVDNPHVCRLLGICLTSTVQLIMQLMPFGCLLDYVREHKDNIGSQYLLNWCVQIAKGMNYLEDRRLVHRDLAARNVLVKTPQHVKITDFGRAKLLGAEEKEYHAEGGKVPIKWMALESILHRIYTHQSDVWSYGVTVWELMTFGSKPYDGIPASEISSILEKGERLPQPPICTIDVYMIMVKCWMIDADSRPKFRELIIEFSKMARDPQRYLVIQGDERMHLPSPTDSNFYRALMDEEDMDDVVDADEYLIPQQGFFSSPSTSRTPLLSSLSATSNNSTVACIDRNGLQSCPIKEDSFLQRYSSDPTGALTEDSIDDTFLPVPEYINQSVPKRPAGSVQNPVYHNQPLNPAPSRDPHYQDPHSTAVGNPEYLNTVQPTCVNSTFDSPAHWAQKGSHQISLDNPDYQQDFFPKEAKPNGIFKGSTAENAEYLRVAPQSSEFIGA
Procedure: as §1

[3] = test system: EGFR mutant expressing Ba/F3 cells; experiment: Cell viability, ALK inhibitors on Ba/F3 with any of the EGFR mutants (summary statements); assay type: cell-based, mouse; details: FIG. 6A-D, FIG. 7A-D
[4] = test system: EGFR signal transductions in EGFR mutants expressing Ba/F3 cells; experiment: Western blotting of EGFR signal transductions in EGFR mutants expressing Ba/F3 cells (summary statements); assay type: cell-based, mouse; details: FIG. 8A-D; L858R-based lines, not shown
[5] = test system: phosphorylation of EGFR and downstream signal transductions in parental line PC9; experiment: Western blotting of EGFR signal, PC9; assay type: cell-based, human; details: FIG. 10A, 10D
[6] = test system: phosphorylation of EGFR and downstream signal transductions in T790M/exon 19 deletion mutant expressing PC9 cell line; experiment: Western blotting of EGFR signal, PC9 T790M; assay type: cell-based, human; details: FIG. 10B, 10D
[7] = test system: phosphorylation of EGFR and downstream signal transductions in triple-mutant expressing PC9 cell line; experiment: Western blotting of EGFR signal, PC9 triple-mutant; assay type: cell-based, human; details: FIG. 10C, 10D
[8] = biological target: EGFR exon 19 deletion mutant (del19) expressing Ba/F3 cells (Homo sapiens, UniProt P00533, DEL746-750, cells depend on it); experiment: CellTiter-Glo cell viability, Ba/F3 EGFR mutant
Sequence of EGFR exon 19 deletion mutant (del19) expressing Ba/F3 cells (P00533 with tags, fused parts or gaps DEL746-750): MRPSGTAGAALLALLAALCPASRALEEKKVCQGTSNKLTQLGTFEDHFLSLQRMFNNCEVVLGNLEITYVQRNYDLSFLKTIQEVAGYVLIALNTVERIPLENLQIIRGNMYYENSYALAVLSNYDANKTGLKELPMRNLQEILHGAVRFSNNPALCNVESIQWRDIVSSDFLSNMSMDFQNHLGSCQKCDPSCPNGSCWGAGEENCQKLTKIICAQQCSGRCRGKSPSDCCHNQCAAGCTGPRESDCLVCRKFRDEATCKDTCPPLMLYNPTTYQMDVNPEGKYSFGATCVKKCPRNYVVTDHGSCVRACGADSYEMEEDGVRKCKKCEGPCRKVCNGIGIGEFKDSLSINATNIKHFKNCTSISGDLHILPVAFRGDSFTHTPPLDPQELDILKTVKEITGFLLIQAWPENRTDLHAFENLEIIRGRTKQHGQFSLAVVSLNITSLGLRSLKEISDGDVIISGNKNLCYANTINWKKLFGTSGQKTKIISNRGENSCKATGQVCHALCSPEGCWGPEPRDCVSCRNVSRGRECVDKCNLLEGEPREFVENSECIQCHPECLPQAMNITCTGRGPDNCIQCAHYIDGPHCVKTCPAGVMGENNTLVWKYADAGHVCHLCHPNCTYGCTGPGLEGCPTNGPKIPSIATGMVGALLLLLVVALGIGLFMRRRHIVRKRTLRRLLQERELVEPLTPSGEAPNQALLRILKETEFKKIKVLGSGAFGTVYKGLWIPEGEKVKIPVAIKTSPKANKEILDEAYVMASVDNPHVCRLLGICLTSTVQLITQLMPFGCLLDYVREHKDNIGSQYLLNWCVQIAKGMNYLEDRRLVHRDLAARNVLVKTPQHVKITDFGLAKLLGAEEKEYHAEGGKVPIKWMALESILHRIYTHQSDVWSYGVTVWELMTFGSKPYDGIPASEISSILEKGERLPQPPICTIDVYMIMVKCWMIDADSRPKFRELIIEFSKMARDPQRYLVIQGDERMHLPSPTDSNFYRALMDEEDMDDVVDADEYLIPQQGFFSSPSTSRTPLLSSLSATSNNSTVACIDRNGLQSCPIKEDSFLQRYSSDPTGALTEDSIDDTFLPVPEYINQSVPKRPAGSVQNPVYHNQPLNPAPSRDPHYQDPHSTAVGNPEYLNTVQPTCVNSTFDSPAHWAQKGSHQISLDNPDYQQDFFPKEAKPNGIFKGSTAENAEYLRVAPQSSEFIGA

[9] = biological target: EGFR T790M/exon 19 deletion mutant (T790M/del19) expressing Ba/F3 cells (Homo sapiens, UniProt P00533, DEL746-750/T790M, cells depend on it); experiment: CellTiter-Glo cell viability, Ba/F3 EGFR mutant
Sequence of EGFR T790M/exon 19 deletion mutant (T790M/del19) expressing Ba/F3 cells (P00533 with tags, fused parts or gaps DEL746-750/T790M): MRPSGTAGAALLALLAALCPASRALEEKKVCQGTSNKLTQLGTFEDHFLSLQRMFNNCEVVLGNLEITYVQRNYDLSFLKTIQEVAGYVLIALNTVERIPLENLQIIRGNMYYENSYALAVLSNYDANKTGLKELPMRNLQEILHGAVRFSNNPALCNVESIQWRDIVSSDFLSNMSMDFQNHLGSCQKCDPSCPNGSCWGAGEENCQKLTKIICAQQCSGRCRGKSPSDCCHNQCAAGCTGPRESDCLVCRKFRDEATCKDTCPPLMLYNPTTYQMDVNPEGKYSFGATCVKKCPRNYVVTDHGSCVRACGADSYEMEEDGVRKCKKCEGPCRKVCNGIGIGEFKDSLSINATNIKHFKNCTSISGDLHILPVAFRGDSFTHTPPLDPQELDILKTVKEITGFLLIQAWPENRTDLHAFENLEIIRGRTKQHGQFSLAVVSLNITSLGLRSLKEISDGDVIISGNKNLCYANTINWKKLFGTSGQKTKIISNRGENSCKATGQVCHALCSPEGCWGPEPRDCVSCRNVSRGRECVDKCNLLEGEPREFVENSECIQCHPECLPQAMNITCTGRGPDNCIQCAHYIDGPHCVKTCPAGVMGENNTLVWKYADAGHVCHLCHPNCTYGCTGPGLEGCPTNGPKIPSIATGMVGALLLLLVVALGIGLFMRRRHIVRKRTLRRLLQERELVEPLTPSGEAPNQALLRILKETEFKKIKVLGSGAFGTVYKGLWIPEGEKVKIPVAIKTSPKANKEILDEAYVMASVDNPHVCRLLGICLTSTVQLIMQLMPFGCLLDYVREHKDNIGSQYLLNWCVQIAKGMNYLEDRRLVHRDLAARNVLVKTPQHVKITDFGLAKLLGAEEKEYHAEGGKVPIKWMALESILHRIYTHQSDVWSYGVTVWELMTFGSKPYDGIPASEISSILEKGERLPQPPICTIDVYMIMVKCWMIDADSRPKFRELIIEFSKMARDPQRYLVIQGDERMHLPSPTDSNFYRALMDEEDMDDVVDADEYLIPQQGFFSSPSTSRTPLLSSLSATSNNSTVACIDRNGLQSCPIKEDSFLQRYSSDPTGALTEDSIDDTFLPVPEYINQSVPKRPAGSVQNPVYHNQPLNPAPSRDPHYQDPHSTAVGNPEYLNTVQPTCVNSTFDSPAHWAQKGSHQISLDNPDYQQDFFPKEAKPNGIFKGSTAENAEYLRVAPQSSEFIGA

[10] = test system: exon 19 deletion mutation; details: cited from earlier work
adenocarcinoma = details: cited from earlier work
[11] = test system: phosphorylation of EGFR and downstream signal transductions in T790M/del19 Ba/F3 cells; experiment: Western blotting of EGFR phosphorylation and downstream signal; assay type: cell-based, mouse; details: 10, 100, 1000 nM; FIG. 2E
[12] = test system: phosphorylation of EGFR and downstream signal transductions in L858R mutant expressing Ba/F3 cells; experiment: as above; assay type: cell-based, mouse; details: FIG. 4A
[13] = test system: phosphorylation of EGFR and downstream signal transductions in T790M/L858R mutant expressing Ba/F3 cells; experiment: as above; assay type: cell-based, mouse; details: FIG. 4B
[14] = test system: human lung cancer cell line PC9 (EGFR exon 19 deletion mutant); assay type: cell-based
[15] = test system: T790M/exon 19 deletion mutant expressing PC9 cell line; assay type: cell-based, human
[16] = test system: A431 wherein EGFR is amplified; experiment: Cell growth of wild type EGFR expressing cells; assay type: cell-based, human; details: FIG. 11
Procedure: The analysis was carried out using A431 wherein EGFR is amplified and A549 and H460 which have a mutation at K-ras. A431 is a cell line derived from a human epithelioid cell cancer and A549 and H460 are cell lines derived from human lung cancers. Note that, EGFR has no mutations despite A431 being amplified, and EGFR also has no mutations in A549 and H460.

[17] = test system: EGFR T790M/exon19 deletion mutant expressing PC9 cells; experiment: Balb-c nu/nu mice transplanted with EGFR mutant expressing PC9; assay type: in vivo, mouse
Procedure: The tumor volume was measured in the same manner as above.
The results are shown from 2 mice per group.

[18] = test system: Ba/F3 cells expressing the T790M/del19 mutant; experiment: SCID mice transplanted with EGFR mutant expressing Ba/F3; details: 50 mg/kg osimertinib, 75 mg/kg brigatinib, oral once daily; FIG. 12B
[19] = read-out: IC50 (nM) Del19, Table 4, ALK inhibitors
[20] = read-out: IC50 (nM) T/D, Table 4, ALK inhibitors, T790M/del19

SMILES | GI50 ([1]; Table 5, ALK inhibitors) [nM] | GI50 [2] [nM] | cell growth suppression effect on Ba/F3 with EGFR mutant having any of the mutations (in words) [3] | inhibitory activity against the EGFR signal transductions (in words) [4] | suppression of phosphorylation of EGFR and downstream signal (in words) [5] | suppression of phosphorylation of EGFR and downstream signal (in words) [6] | suppression of phosphorylation of EGFR and downstream signal (in words) [7] | GI50 [8, 19] [nM] | GI50 [9, 20] [nM] | also measured
COc1cc(N2CCC(N(C)C)CC2)ccc1Nc1ncc(Cl)c(Nc2ccccc2P(C)(C)=O)n1 [AP26113-analogue, AP26113-analog] | 92.1 | 36 | strong cell growth suppression effects | demonstrated the inhibitory activity against the EGFR signal transductions | the effect was weaker compared to afatinib | equal suppression effect to brigatinib | demonstrated the suppression effects on the phosphorylation of EGFR | 36.9 | 139 | –
COc1cc(N2CCC(N3CCN(C)CC3)CC2)ccc1Nc1ncnc(Nc2ccccc2S(=O)(=O)C(C)C)n1 [ASP3026] | 948 | 1690 | did not substantially demonstrate the cell growth suppression effect | did not substantially demonstrate the inhibitory effect on the EGFR signal transductions even when treated at a high concentration of 1 μM | – | – | – | 450 | 2170 | –
COc1cc(N2CCC(N)CC2)ccc1Nc1ncc(Cl)c(-c2c[nH]c3ccccc23)n1 [AZD3463] | 287 | 184 | strong cell growth suppression effects | – | confirmed to have the effect of suppressing the phosphorylation of EGFR | confirmed to have the effect of suppressing the phosphorylation of EGFR | had the effect of suppressing the phosphorylation of the EGFR signal transductions | 90 | 175 | –
O=C(Nc1nccs1)C(c1cc(F)ccc1O)N1Cc2ccccc2C1=O (centres unmarked) [EAI045] | – | – | – | – | – | – | – | – | – | effectiveness on the exon 19 deletion mutation (in words) [10]: not effective on the exon 19 deletion mutation
COc1cc(N2CCC(N3CCN(C)CC3)CC2)ccc1Nc1ncc(Cl)c(Nc2ccccc2S(=O)(=O)C(C)C)n1 [TAE684] | – | – | did not substantially demonstrate the cell growth suppression effect | did not substantially demonstrate the inhibitory effect on the EGFR signal transductions even when treated at a high concentration of 1 μM | – | – | – | – | – | –
COc1cc(N2CCC(N3CCN(C)CC3)CC2)ccc1Nc1ncc(Cl)c(Nc2ccccc2P(C)(C)=O)n1 [brigatinib] | – | – | – | – | – | – | – | – | – | GI50 ([1]; egfr l858r mutant expressing ba/f3 cells): 207 nM and 133 nM; GI50 ([8]; read-out: IC50 (nM) Del19, egfr exon 19 deletion mutant (del19) expressing ba/f3 cells): 43.7 nM; GI50 ([8]; read-out: IC50 (nM) del19, egfr exon 19 deletion mutant (del19) expressing ba/f3 cells): 43.7 nM; GI50 ([9]; read-out: IC50 (nM) T790M/del19, egfr t790m/exon 19 deletion mutant (t790m/del19) expressing ba/f3 cells): 150 nM; GI50 ([9]; read-out: IC50 (nM) T/D, egfr t790m/exon 19 deletion mutant (t790m/del19) expressing ba/f3 cells): 150 nM
Cc1cc(Nc2ncc(Cl)c(Nc3ccccc3S(=O)(=O)C(C)C)n2)c(OC(C)C)cc1C1CCNCC1 [ceritinib] | 1160 | 685 | did not substantially demonstrate the cell growth suppression effect | did not substantially demonstrate the inhibitory effect on the EGFR signal transductions even when treated at a high concentration of 1 μM | – | – | – | 524 | – | –
COc1cc2ncnc(Nc3ccc(F)c(Cl)c3)c2cc1OCCCN1CCOCC1 [gefitinib] | – | – | – | – | – | – | – | – | – | PFS (progression-free survival) (adenocarcinoma; EGFR gene mutation-positive group): 9.5 months; PFS (progression-free survival) (adenocarcinoma; mutation negative group): 1.5 months
C=CC(=O)Nc1cc(Nc2nccc(-c3cn(C)c4ccccc34)n2)c(OC)cc1N(C)CCN(C)C [osimertinib] | – | – | – | – | also very strongly suppressed the phosphorylation | demonstrated the effects of suppressing the phosphorylation | neither of afatinib, osimertinib, or gefitinib demonstrated the suppression effect | – | – | suppression of phosphorylation of EGFR and downstream signal (in words) [11]: strongly suppressed the phosphorylation of EGFR; suppression of phosphorylation of EGFR and downstream signal (in words) [12]: suppression effect, despite being weaker than afatinib; suppression of phosphorylation of EGFR and downstream signal (in words) [13]: strongest suppression effect; cell growth suppression effect (in words) [14]: demonstrated the cell growth suppression effects; cell growth suppression effect (in words) [15]: extremely strong cell growth suppression effect; cell growth suppression (in words) [16]: suppress the cell growth; effect on the tumor growth (tumor volume, in words) ([17]; 50 mg/kg osimertinib, 75 mg/kg brigatinib, oral once daily, FIG. 13A): notable effect on the tumor growth; survival (Kaplan-Meier, in words) ([17]; FIG. 13B): alive during the observation period; tumor growth suppression effect (tumor volume, in words) [18]: had the effect
